The record followed here is PMC4581874 (PLoS ONE, 2015).

One assay concerns the target T1, VEGFR-1 (Homo sapiens, UniProt P17948).
T1 construct: purchased Millipore UK Ltd., Dundee, UK (now Eurofins Scientific); KinaseProfiler / IC50 Profiler service
In words: In vitro kinase assay, VEGFR-1. The format is biochemical. How it is done:
(§1) All kinase assays were carried out using KinaseProfiler^TM and IC50 Profiler^TM (Millipore UK Ltd., Dundee, UK. Now Eurofins Scientific, Dundee, UK). All IC50 data were presented as the mean values. The Curves obtained to determine IC50 values were shown in Supporting Information (S1 Fig).

The target of another assay is T2, VEGFR-3 (Homo sapiens, UniProt P35916).
T2 construct: purchased Millipore UK Ltd., Dundee, UK (now Eurofins Scientific); KinaseProfiler / IC50 Profiler service
In words: In vitro kinase assay, VEGFR-3. The format is biochemical. How it is done:
as §1

For a further assay, the target named is T3, cKit (Homo sapiens, UniProt P10721).
T3 construct: purchased Millipore UK Ltd., Dundee, UK (now Eurofins Scientific); KinaseProfiler / IC50 Profiler service
In words: In vitro kinase assay, cKit. The format is biochemical. As for the experimental part:
as §1

Another assay has as its target T4, AMPKα1 (h) (Homo sapiens, UniProt Q13131).
T4 construct: purchased Millipore (now Eurofins) KinaseProfiler / IC50 Profiler
Description: Kinase profile, AMPKα1. The format is biochemical. As to conditions: mean ± S.D. How it is done:
as §1

The target of a further assay is T5, CaMKIIβ (h) (Homo sapiens, UniProt Q13554).
T5 construct: purchased Millipore (now Eurofins) KinaseProfiler / IC50 Profiler
Description: Kinase profile, CaMKIIβ. The format is biochemical. As to conditions: mean ± S.D. How it is done: as §1

In another assay the target is T6, CDK2/cyclin A (h) (Homo sapiens, UniProt P24941).
T6 construct: purchased Millipore (now Eurofins) KinaseProfiler / IC50 Profiler
Description: Kinase profile, CDK2/cyclin A. As to conditions: mean ± S.D. The format is biochemical. As for the experimental part: as §1

The next assay deals with T7, CDK5/p35 (h) (Homo sapiens, UniProt Q00535).
T7 construct: purchased Millipore (now Eurofins) KinaseProfiler / IC50 Profiler
In words: Kinase profile, CDK5/p35. The format is biochemical. As to conditions: mean ± S.D. How it is done:
as §1

A further assay concerns the target T8, GSK3β (h) (Homo sapiens, UniProt P49841).
T8 construct: purchased Millipore (now Eurofins) KinaseProfiler / IC50 Profiler
Description: Kinase profile, GSK3β. As to conditions: mean ± S.D. The format is biochemical. As for the experimental part:
as §1

The next assay has as its target T9, p70S6K (h) (Homo sapiens, UniProt P23443).
T9 construct: purchased Millipore (now Eurofins) KinaseProfiler / IC50 Profiler
In words: Kinase profile, p70S6K. The format is biochemical. As to conditions: mean ± S.D. As for the experimental part:
as §1

A further assay addresses T10, PKBβ (h) (Homo sapiens, UniProt P31751).
T10 construct: purchased Millipore (now Eurofins) KinaseProfiler / IC50 Profiler
In words: Kinase profile, PKBβ. The format is biochemical. As to conditions: mean ± S.D. As for the experimental part:
as §1

A further assay deals with T11, PKCμ (h) (Homo sapiens, UniProt Q15139).
T11 construct: purchased Millipore (now Eurofins) KinaseProfiler / IC50 Profiler
Description: Kinase profile, PKCμ. As to conditions: mean ± S.D. The format is biochemical. As for the experimental part:
as §1

A further assay concerns HUVECs. In words: VEGF-induced endothelial proliferation assay. The format is cell-based, human. As to conditions: VEGF 50 ng/mL, compound 1 μg/mL. As for the experimental part: For the cell proliferation assays, cells were incubated overnight in endothelial basal media (EBM; Lonza, Walkersville, MD, USA) containing 0.5% FBS or supplemented with VEGF-A and/or VEGF inhibitors. The cells were washed with PBS and counted in 4 random microscope fields. The tube formation assay was performed by seeding cells on Matrigel-coated plates (BD Bioscience, Bedford, MA, USA) and incubating in EBM containing 0.5% FBS or supplemented with VEGF-A and/or VEGF inhibitors. After overnight incubation, tubule networks were quantified by measuring the tubule length in 4 random microscope fields. For the analysis of scratch wound migration, confluent cell monolayers grown on 6-well plates were scratched using a micropipette tip. After the plates were washed with PBS to remove dislodged cells and media, they were incubated with EBM containing 0.5% FBS or supplemented with VEGF and/or VEGF inhibitors for 8 hours. Cell migration was observed by optical microscopy and quantified by measuring the number of cells that had migrated from the wound edges.

T3 sequence (P10721 26-976): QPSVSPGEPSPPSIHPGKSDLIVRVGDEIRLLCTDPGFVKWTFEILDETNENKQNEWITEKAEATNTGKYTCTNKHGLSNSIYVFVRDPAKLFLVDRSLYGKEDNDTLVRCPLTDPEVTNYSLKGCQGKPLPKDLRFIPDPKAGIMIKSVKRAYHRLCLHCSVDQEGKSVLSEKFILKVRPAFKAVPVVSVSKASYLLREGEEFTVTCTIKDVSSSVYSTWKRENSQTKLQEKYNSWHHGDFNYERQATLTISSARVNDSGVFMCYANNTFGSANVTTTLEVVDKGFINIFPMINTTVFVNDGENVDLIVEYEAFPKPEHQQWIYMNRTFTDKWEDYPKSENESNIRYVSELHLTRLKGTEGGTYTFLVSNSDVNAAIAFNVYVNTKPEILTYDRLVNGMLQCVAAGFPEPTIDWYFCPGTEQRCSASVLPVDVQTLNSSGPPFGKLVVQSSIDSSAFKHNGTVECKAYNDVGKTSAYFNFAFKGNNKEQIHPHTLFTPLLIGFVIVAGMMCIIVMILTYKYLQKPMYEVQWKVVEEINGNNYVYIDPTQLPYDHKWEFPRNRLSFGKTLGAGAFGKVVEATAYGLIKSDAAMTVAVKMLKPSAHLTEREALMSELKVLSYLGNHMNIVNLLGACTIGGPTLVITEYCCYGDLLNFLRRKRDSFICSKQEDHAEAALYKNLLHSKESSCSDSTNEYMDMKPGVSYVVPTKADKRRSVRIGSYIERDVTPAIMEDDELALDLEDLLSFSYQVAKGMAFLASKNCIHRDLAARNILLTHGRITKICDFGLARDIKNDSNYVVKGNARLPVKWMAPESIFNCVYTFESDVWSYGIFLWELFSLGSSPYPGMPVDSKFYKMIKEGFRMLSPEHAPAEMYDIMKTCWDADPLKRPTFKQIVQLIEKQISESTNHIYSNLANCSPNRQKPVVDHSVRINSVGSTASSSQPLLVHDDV
T1 sequence (P17948 27-1338): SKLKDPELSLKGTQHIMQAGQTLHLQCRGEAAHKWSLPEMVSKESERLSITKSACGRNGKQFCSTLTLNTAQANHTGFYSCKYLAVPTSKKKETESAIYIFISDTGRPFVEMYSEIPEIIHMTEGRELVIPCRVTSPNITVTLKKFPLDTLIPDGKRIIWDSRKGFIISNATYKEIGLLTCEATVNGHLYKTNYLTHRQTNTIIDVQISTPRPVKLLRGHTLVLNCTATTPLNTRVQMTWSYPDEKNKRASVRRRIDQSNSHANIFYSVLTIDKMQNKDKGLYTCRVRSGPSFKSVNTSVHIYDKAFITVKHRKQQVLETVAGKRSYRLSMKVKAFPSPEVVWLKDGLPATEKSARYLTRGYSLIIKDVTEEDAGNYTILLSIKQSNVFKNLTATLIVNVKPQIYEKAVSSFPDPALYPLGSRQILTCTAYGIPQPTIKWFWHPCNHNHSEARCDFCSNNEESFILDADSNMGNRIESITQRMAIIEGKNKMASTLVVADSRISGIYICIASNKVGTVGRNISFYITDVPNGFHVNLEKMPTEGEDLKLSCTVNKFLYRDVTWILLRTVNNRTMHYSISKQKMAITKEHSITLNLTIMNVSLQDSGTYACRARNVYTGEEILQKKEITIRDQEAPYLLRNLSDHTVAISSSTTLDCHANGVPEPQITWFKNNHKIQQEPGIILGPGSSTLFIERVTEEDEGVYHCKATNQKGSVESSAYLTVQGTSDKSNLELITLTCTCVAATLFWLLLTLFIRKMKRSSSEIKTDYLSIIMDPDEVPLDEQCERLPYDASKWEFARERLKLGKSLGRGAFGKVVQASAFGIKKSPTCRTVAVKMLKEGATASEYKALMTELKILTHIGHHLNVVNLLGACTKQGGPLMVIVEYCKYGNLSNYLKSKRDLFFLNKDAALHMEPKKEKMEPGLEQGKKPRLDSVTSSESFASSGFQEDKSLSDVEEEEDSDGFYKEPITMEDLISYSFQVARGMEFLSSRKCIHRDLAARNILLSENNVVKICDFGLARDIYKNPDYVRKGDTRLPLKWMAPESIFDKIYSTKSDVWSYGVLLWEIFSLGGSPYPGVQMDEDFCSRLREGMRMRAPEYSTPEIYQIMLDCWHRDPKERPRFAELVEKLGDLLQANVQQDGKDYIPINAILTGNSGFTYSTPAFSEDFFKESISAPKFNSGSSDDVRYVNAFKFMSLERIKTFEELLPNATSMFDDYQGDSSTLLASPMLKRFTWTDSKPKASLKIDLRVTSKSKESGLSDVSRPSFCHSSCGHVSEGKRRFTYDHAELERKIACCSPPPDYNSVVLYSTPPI
T2 sequence (P35916 25-1363): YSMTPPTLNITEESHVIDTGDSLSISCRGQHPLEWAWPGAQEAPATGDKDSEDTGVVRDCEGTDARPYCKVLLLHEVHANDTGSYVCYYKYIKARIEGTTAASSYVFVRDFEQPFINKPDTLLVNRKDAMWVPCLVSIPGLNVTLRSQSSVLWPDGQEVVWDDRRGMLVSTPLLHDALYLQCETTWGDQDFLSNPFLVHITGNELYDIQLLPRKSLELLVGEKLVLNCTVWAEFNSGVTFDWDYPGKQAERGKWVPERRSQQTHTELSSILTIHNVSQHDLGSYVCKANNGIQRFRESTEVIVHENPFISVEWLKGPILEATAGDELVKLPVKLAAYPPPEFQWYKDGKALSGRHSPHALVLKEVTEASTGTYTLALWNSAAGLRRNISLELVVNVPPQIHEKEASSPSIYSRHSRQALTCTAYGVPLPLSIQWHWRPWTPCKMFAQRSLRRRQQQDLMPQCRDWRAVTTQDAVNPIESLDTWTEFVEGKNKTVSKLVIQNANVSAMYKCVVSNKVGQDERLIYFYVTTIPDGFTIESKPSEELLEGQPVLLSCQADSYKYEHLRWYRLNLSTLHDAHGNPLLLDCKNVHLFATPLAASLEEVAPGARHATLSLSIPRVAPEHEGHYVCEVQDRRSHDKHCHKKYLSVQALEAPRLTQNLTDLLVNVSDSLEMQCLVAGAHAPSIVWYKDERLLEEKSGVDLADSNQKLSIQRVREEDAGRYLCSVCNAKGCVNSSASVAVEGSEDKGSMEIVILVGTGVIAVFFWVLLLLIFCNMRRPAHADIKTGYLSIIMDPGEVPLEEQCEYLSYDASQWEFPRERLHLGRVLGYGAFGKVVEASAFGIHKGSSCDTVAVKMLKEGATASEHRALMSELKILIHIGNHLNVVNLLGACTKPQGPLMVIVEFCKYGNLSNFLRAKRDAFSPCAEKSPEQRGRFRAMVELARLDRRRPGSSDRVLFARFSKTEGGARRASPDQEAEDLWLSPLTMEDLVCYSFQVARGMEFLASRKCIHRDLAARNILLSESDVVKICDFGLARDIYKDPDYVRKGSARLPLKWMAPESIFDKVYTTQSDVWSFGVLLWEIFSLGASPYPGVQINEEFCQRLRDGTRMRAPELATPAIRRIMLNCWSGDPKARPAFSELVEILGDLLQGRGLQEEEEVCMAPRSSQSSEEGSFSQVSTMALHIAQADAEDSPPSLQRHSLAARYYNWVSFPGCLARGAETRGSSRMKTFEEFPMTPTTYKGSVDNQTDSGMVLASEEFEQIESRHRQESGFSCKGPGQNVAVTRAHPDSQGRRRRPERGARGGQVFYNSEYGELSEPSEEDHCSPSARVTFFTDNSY
T7 sequence (Q00535 whole entry): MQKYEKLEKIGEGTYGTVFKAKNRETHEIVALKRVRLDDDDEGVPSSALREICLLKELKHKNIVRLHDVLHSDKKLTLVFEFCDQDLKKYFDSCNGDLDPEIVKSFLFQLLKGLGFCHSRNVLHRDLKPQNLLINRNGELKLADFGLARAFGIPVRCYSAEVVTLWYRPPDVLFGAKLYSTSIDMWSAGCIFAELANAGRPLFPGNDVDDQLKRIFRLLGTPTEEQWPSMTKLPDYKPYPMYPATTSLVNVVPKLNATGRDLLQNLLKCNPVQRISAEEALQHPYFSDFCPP
T7 sequence (Q15078 whole entry partner): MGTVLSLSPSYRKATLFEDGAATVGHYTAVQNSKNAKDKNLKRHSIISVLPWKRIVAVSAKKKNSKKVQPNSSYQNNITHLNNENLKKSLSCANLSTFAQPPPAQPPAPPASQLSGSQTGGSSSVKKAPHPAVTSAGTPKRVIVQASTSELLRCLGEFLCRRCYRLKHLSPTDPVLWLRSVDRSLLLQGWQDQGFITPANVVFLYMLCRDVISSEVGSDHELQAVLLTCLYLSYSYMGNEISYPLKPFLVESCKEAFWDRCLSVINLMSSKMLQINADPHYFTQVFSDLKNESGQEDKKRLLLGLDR
T8 sequence (P49841 whole entry): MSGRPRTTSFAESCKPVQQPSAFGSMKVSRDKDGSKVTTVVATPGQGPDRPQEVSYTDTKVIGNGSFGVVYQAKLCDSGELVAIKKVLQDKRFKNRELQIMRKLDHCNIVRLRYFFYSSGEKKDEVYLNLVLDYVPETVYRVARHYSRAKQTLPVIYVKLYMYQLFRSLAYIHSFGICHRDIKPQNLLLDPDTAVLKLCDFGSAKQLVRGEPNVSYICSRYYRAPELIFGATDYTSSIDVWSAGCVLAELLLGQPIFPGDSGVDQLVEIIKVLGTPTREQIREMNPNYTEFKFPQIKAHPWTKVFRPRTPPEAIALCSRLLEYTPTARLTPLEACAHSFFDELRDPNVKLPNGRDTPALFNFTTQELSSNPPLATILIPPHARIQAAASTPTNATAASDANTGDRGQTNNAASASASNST

As for `Cc1ccc(Nc2nccc(N(C)c3ccc4[nH]ccc4c3)n2)cc1S(N)(=O)=O` [MKP101], the inhibition at 1 µM on VEGFR-1 (1 μM, mean ± S.D., read-out: % inhibition at 1 μM, VEGFR-1 (h)) was determined as 99%; at VEGFR-3 (1 μM, mean ± S.D., read-out: % inhibition at 1 μM, VEGFR-3 (h)), 98%; on cKit (1 μM, mean ± S.D., read-out: % inhibition at 1 μM, cKit(h)), 99%; on AMPKα1 (h), 0%; at CaMKIIβ (h) it was 17 ± 4%; against CDK2/cyclin A (h), 12 ± 8%. For the same compound, the inhibition at 1 µM against CDK5/p35 (h) came to 38 ± 3%; on GSK3β (h), 18 ± 4%; at p70S6K (h), 20 ± 3%; against PKBβ (h), 14 ± 4%; at PKCμ (h), 7 ± 1%. Moreover, the IC50 stood at 3 nM at VEGFR-1 (in vitro kinase assay), 2 nM at VEGFR-3 (in vitro kinase assay) and 108 nM on cKit (in vitro kinase assay). Further, in the assay on HUVECs, the “Effect on VEGF-induced increase in endothelial proliferation” value was “significantly inhibited”.

As usually defined, the inhibition is the percentage by which the read-out fell short of the control. Broadly, the IC50 is the midpoint of a concentration-inhibition curve. A higher IC50 goes with a need for much substance.
